Here are results for two compounds from patent US10925963B2, “Combination artemisinin and chemiluminescent photodynamic therapy and uses therefor” (Washington University, priority 2015, dated 2021).

In series [1] the test system is Plasmodium-infected erythrocytes. Nature of the series: Fluorescence microscopy of PPIX accumulation in parasite-infected erythrocytes. It counts as cell-based, Plasmodium falciparum. To be noted: parasites grown in 200 μM ALA; epifluorescence microscope. The protocol:
(§1) Images of live or fixed parasites were acquired on an Axio Imager.M1 epifluorescence microscope (Carl Zeiss Microimaging, Inc.) equipped with a Hamamatsu ORCA-ER digital CCD camera and running Axiovision 4.8 software, as described previously (Sigala, P. A., et al., J. Biol. Chem. 287, 37793-37807, 2012). Live parasite nuclei were stained with 5 μM Hoechst 33342 added immediately prior to image acquisition. For photodynamic imaging studies, parasites were cultured in 200-500 μM ALA in the absence or presence of 50 μM succinylacetone for 6-12 hours prior to visualization. Hemozoin movement in parasite digestive vacuoles were imaged by acquiring 10-20 sequential frames at 1 second intervals on the bright-field channel. Images were cropped and superimposed in Adobe Photoshop and exported as movie files with a 0.1 second frame delay. […]
The present inventors investigated whether ALA treatment could serve as a probe of heme biosynthesis activity in Plasmodium-infected erythrocytes by enabling direct visualization of PPIX production and the cellular consequences of light activation. Untreated parasites imaged on an epifluorescence microscope display only background auto-fluorescence from hemozoin crystals in the parasite digestive vacuole (FIG. 2). […]

The subject of series [2] is asynchronous 3D7 parasites. The experiment in a line: Parasite growth of ALA-treated cultures with daily white-light exposure. Format: cell-based, Plasmodium falciparum. The protocol: Parasite growth was monitored by diluting asynchronous parasites to 0.5% parasitemia and allowing culture expansion with daily or twice daily media changes. […] To assess the light sensitivity of ALA-treated parasites, asynchronous parasites were cultured in 200-500 μM ALA in the absence or presence of 50 μM succinylacetone and subjected to 2-5 minute daily exposures to broad wavelength white light on an overhead projector. Daily parasitemia measurements were plotted as a function of time and fit to an exponential growth equation using Graph Pad Prism 5.0 (Graph Pad Software, Inc., La Jolla, Calif.).
To test the effects of these changes on bulk parasite culture, the present inventors monitored the growth of untreated versus ALA-treated parasites over several days with 2-minute daily exposures to broad-wavelength white light on an overhead projector light box. FIG. 4 depicts growth of asynchronous 3D7 parasites in the presence or absence of 200 μM ALA and 50 μM succinylacetone (SA), with 2-minute exposures to white light on an overhead projector on days 0-2. Parasitemia (percentage of total erythrocytes infected with parasites) as a function of time was fit with an exponential growth equation.

Series [3] relates to hemozoin crystals in the parasite digestive vacuole. Nature of the series: Hemozoin dynamics in the digestive vacuole after light exposure. As to conditions: 200 μM ALA-treated parasites; fluorescence image acquisition overlapping PPIX excitation. Format: cell-based, Plasmodium falciparum. The procedure: as §1
The cytotoxic effects of light-activating PPIX were readily apparent by monitoring the motion of hemozoin crystals that dynamically tumble within the digestive vacuole of individual parasites. […] FIG. 3A depicts bright field and fluorescence microscopy images of untreated and 200 μM ALA-treated parasites. Fluorescence images were acquired with a Zeiss filter set 43 HE (excitation 537-562 nm, emission 570-640 nm). […]

The next series relates to uninfected erythrocytes. The experiment in a line: Fluorescence microscopy of uninfected erythrocytes incubated in ALA. To be noted: 500 μM ALA. Format: cell-based. The protocol: as §1, with “delay. Immunofluorescence images were acquired by fixing and staining parasites as previously described (Tonkin, C. J., et al., Mol. Biochem. Parasitol 137, 13-21, 2004; Ponpuak, M., et al., Mol. Microbiol. 63, 314-334, 2007). Electron microscopy images were obtained as previously described (Beck., J. R., et al., Nature 511, 592-595, 2014).” for “delay.”
FIG. 7A depicts Bright field and fluorescence (Zeiss filter set 43 HE) images of uninfected erythrocytes incubated in 500 μM ALA before or after electroporation.

The test system of series [4] is heme biosynthesis enzymes in the erythrocyte cytoplasm. The experiment in a line: LC-MS/MS detection of 13C-labelled PPIX and CPP from 13C-ALA in erythrocyte lysate supernatants. It counts as biochemical. To be noted: 50 μM succinylacetone; 200 μM 5-[13C4]-ALA; saponin lysate supernatant, overnight 37° C. The procedure:
Parasites were cultured in 200 μM 5-[^13C4]-ALA for 12-24 hours, harvested by centrifugation, lysed in 0.05% cold saponin, washed in PBS, and extracted with DMSO. Deuteroporphyrin was added as an internal standard, and extracts were analyzed for ^13C-labeled heme, PPIX, and CPPIII using a previously published liquid chromatography-multiple reaction monitoring tandem mass spectrometry assay (Ke, H. et al., J. Biol. Chem. 289, 34827-34837, 2014).
To assess the heme biosynthesis capacity of the erythrocyte cytoplasm, 500 μl packed red blood cells (described previously; Sigala, P. A., et al., J. Biol. Chem. 287, 37793-37807, 2012) were lysed in 20 ml of 0.04% saponin/PBS (0.2 μM filtered) and centrifuged at 25,000×g for 60 minutes to pellet unlysed cells and any organelles. The superficial 15 ml of the lysate supernatant was removed and 0.2 μM filtered, supplemented with 200 μM 5-[^13C4]-ALA in the absence or presence of 50 μM succinylacetone, incubated overnight at 37° C., and analyzed by tandem mass spectrometry as described above.
In these investigations, red porphyrin fluorescence in ALA-treated intraerythrocytic parasites was not limited to the parasitophorous vacuole but was detectable throughout the erythrocyte cytoplasm (FIG. 3A), as expected for host enzyme activity in this compartment and production of PPIX. […]

Series [5] deals with 3D7 (drug sensitive) parasites. Nature of the series: Chemiluminescence-based photodynamic therapy (CL-PDT) parasite growth. Format: cell-based, Plasmodium falciparum. To be noted: 50 μM succinylacetone. The procedure: Parasitemia was measured daily as indicated above.
The present inventors tested whether intraerythrocytic parasites might be uniquely susceptible to chemiluminescence-based photodynamic therapy (CL-PDT) (FIG. 9A). Artemisinin and its derivatives are current frontline drugs used for treatment of malaria, usually in combination with a partner drug. To test the efficacy of an artemisinin CL-PDT strategy for treatment of blood-stage malaria, we incubated intraerythrocytic parasites in 50-100 μM ALA with or without luminol and sub-therapeutic doses (≤10% of EC50) of dihyroartemisinin (DHA), with twice-daily media changes.

Structures are written as SMILES.

In the case of `NCC(=O)CCC(=O)O` [ALA, 5-aminolevulinic acid], in series [1], the “porphyrin (PPIX) fluorescence of infected erythrocytes” value is recorded as “bright red fluorescence”. Further, the “growth of cultures in the presence of light” value in series [2] (200 μM ALA, 2-minute daily exposures to white light on days 0-2) is given as “strongly attenuated by light”. In addition, the “blood smear examination of light-exposed cultures” value in series [2] (ALA-treated cultures, 2-minute daily white light) is given as “predominantly contained pyknotic parasites”. Further, the “photosensitivity of growth in ALA after apicoplast disruption” value in series [2] (IPP/doxycycline-treated 3D7 parasites, 200 μM ALA, 2-minute light exposures) is “remained fully photosensitive”. The “photosensitivity of clonal growth in ALA” value in series [2] (ΔPBGD and ΔCPO 3D7 parasite lines, 200 μM ALA, 2-minute light exposures days 0-2) is on record as “remained fully photosensitive”. For the same compound, the “hemozoin dynamics after light” value in series [3] is given as “rapidly ablated by light”. The “porphyrin fluorescence of uninfected erythrocytes” value is “robust intracellular porphyrin fluorescence” in the series on uninfected erythrocytes (after electroporation) and “no detectable porphyrin fluorescence” with uninfected erythrocytes (without electroporation).
Turning to `CC(=O)CC(=O)CCC(=O)O` [succinylacetone], the “formation of 13C-labelled PPIX and coproporphyrin III from 13C-ALA” value in series [4] is given as “fully blocked”. Besides, the “rescue of photosensitivity of parasite growth in ALA” value in series [2] (50 μM succinylacetone with 200 μM ALA, 2-minute light exposures) is “fully rescued”. The “rescue of cytotoxicity of the ALA/luminol/DHA combination” value in series [5] is reported as “could be rescued”.
